Data: patent publication US20020137929A1, “1 - (3-heterocyclylphenyl) isothiourea, -isourea, -guanidine and -amidine herbicidal agents” (Intellectual Property Department, BASF Aktiengesellschaft, priority 1998, published 2002)

Assays:
ABUTH (Velvetleaf) = test: Postemergence herbicidal evaluation; type: in vivo, Abutilon theophrasti; details: postemergence
Outline: (§1)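 Scores (0–9) reflect plant stand, vigor, malformation, size, chlorosis and general appearance relative to control, read 4 to 5 weeks after treatment and averaged where tests were repeated. Application: about 0.0156–0.500 kg/ha sprayed at 40 psi onto two-week seedlings.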

[1] = tested on: ECHORC (Watergrass (Calif.)); test: Postemergence weed control under flooded paddy conditions; type: in vivo, Echinochloa oryzoides; details: postemergence weeds, rated 3 to 4 weeks after treatment
Outline: (§2)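 With weeds 3 to 5 cm tall and rice at the 1.5 to 2.5 leaf stage, containers were flooded and water held 1.5 to 3 cm above soil. Compounds in 50/50 v/v aqueous/acetone went into the flood water at about 0.0313 to 0.500 kg/ha a.i. Effects were visually rated 0–9 against controls after three to four weeks in the greenhouse.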

SETVI (Foxtail, Green) = test: Preemergence herbicidal evaluation; type: in vivo, Setaria viridis; details: rated 4-5 weeks after treatment
Outline: (§3)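 Preemergence soil application of compound, sprayed in aqueous acetone at rates equivalent to about 0.0156 to 0.500 kg per hectare onto freshly sown cups. Plant response was judged by eye on a 0-9 scale four to five weeks later.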

CYPIR (Rice Flatsedge) = test: Postemergence weed control under flooded paddy conditions; type: in vivo, Cyperus iria; details: postemergence weeds, rated 3 to 4 weeks after treatment
Outline: as §2

ECHCG (Barnyardgrass) = test: Preemergence herbicidal evaluation; type: in vivo, Echinochloa crus-galli; details: rated 4-5 weeks after treatment
Outline: as §3

[2] = tested on: IPOHE (Morningglory, Ivyleaf); test: Preemergence herbicidal evaluation; type: in vivo, Ipomoea hederacea; details: rated 4-5 weeks after treatment
Outline: as §3

ORYSAT (Rice, Tebonnet) = test: Preemergence herbicidal evaluation; type: in vivo, Oryza sativa, (L.) Tebonnet; details: rated 4-5 weeks after treatment
Outline: as §3

[3] = tested on: CHEAL (Lambsquarters, Common); test: Preemergence herbicidal evaluation; type: in vivo, Chenopodium album; details: rated 4-5 weeks after treatment
Outline: as §3

[4] = tested on: TRZAWR (Wheat, Winter, cv Riband); test: Preemergence herbicidal evaluation; type: in vivo, Triticum aestivum; details: rated 4-5 weeks after treatment
Outline: as §3

[5] = tested on: TRZAWR (Wheat, Winter, cv Riband); test: Postemergence herbicidal evaluation; type: in vivo, Triticum aestivum; details: postemergence
Outline: as §1

[6] = tested on: ECHORC (Watergrass (Calif.)); test: Preemergence weed control under flooded paddy conditions; type: in vivo, Echinochloa oryzoides; details: rated 3-4 weeks after treatment
Outline: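 Seeds or propagules sown in top 0.5 cm of silt loam soil, flooded 1.5 to 3 cm above surface throughout. Compound in 50/50 v/v aqueous/acetone pipetted into flood water at about 0.0313 to 0.500 kg/ha. Visual 0-9 rating versus control after three to four weeks in greenhouse.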

[7] = tested on: IPOHE (Morningglory, Ivyleaf); test: Postemergence herbicidal evaluation; type: in vivo, Ipomoea hederacea; details: postemergence
Outline: as §1

COC(=O)[C@@H](Cc1ccccc1)N1C(=O)CSC1=Nc1cc(-n2c(=O)cc(C(F)(F)F)n(C)c2=O)c(F)cc1Cl [Compound 74, Methyl α-benzyl-2-{{2-chloro-5-[3,6-dihydro-3-methyl-2,6-dioxo-4-(trifluoromethyl)-1(2H)-pyrimidinyl]-4-fluorophenyl}imino}-4-oxo-3-thiazolidineacetate, D-]
ABUTH herbicidal rating (ABUTH (Velvetleaf); rate 0.0158 kg/ha): 9.0 | ABUTH herbicidal rating (ABUTH (Velvetleaf); rate 0.0315 kg/ha): 9.0 | ABUTH herbicidal rating (ABUTH (Velvetleaf); rate 0.0630 kg/ha): 9.0 | Herbicidal rating ECHORC ([1]; Rate 0.0313 kg/ha): 7.0 | Herbicidal rating ECHORC ([1]; Rate 0.0625 kg/ha): 9.0 | Herbicidal rating ECHORC ([1]; Rate 0.1250 kg/ha): 9.0 | Herbicidal rating ECHORC ([1]; Rate 0.2500 kg/ha): 9.0 | Preemergence herbicidal rating SETVI (SETVI (Foxtail, Green); rate 0.0156 kg/ha): 0.0 | Preemergence herbicidal rating SETVI (SETVI (Foxtail, Green); rate 0.0313 kg/ha): 0.0 | Preemergence herbicidal rating SETVI (SETVI (Foxtail, Green); rate 0.0625 kg/ha): 1.0 | Preemergence herbicidal rating SETVI (SETVI (Foxtail, Green); rate 0.1250 kg/ha): 4.0 | Preemergence herbicidal rating SETVI (SETVI (Foxtail, Green); rate 0.2500 kg/ha): 9.0 | Herbicidal rating CYPIR (CYPIR (Rice Flatsedge); Rate 0.0313 kg/ha): 0.0 | Herbicidal rating CYPIR (CYPIR (Rice Flatsedge); Rate 0.0625 kg/ha): 0.0 | Herbicidal rating CYPIR (CYPIR (Rice Flatsedge); Rate 0.1250 kg/ha): 0.0 | Herbicidal rating CYPIR (CYPIR (Rice Flatsedge); Rate 0.2500 kg/ha): 0.0 | Preemergence herbicidal rating ECHCG (ECHCG (Barnyardgrass); rate 0.0156 kg/ha): 0.0 | Preemergence herbicidal rating ECHCG (ECHCG (Barnyardgrass); rate 0.0313 kg/ha): 0.0 | Preemergence herbicidal rating ECHCG (ECHCG (Barnyardgrass); rate 0.0625 kg/ha): 1.0 | Preemergence herbicidal rating ECHCG (ECHCG (Barnyardgrass); rate 0.1250 kg/ha): 0.0 | Preemergence herbicidal rating ECHCG (ECHCG (Barnyardgrass); rate 0.2500 kg/ha): 1.0 | Preemergence herbicidal rating IPOHE ([2]; rate 0.0156 kg/ha): 0.0 | Preemergence herbicidal rating IPOHE ([2]; rate 0.0625 kg/ha): 1.0 | Preemergence herbicidal rating IPOHE ([2]; rate 0.1250 kg/ha): 0.0 | Preemergence herbicidal rating IPOHE ([2]; rate 0.2500 kg/ha): 1.0 | Preemergence herbicidal rating ORYSAT (ORYSAT (Rice, Tebonnet); rate 0.0156 kg/ha): 0.0 | Preemergence herbicidal rating ORYSAT (ORYSAT (Rice, Tebonnet); rate 0.0313 kg/ha): 0.0 | Preemergence herbicidal rating ORYSAT (ORYSAT (Rice, Tebonnet); rate 0.0625 kg/ha): 1.0 | Preemergence herbicidal rating ORYSAT (ORYSAT (Rice, Tebonnet); rate 0.1250 kg/ha): 1.0 | Preemergence herbicidal rating ORYSAT (ORYSAT (Rice, Tebonnet); rate 0.2500 kg/ha): 1.0 | Preemergence herbicidal rating CHEAL ([3]; rate 0.0156 kg/ha): 9.0 | Preemergence herbicidal rating CHEAL ([3]; rate 0.0313 kg/ha): 9.0 | Preemergence herbicidal rating CHEAL ([3]; rate 0.0625 kg/ha): 9.0 | Preemergence herbicidal rating CHEAL ([3]; rate 0.1250 kg/ha): 9.0 | Preemergence herbicidal rating CHEAL ([3]; rate 0.2500 kg/ha): 9.0 | Preemergence herbicidal rating TRZAWR ([4]; rate 0.0156 kg/ha): 0.0 | Preemergence herbicidal rating TRZAWR ([4]; rate 0.0313 kg/ha): 0.0 | Preemergence herbicidal rating TRZAWR ([4]; rate 0.0625 kg/ha): 1.0 | Preemergence herbicidal rating TRZAWR ([4]; rate 0.1250 kg/ha): 1.0 | Preemergence herbicidal rating TRZAWR ([4]; rate 0.2500 kg/ha): 1.0 | TRZAWR herbicidal rating ([5]; rate 0.0158 kg/ha): 3.5 | TRZAWR herbicidal rating ([5]; rate 0.0315 kg/ha): 4.5 | TRZAWR herbicidal rating ([5]; rate 0.0630 kg/ha): 6.0 | ECHORC herbicidal effect rating ([6]; 0.0313 kg/ha): 7.0 | ECHORC herbicidal effect rating ([6]; 0.0625 kg/ha): 9.0 | ECHORC herbicidal effect rating ([6]; 0.1250 kg/ha): 9.0 | ECHORC herbicidal effect rating ([6]; 0.2500 kg/ha): 9.0 | IPOHE herbicidal rating ([7]; rate 0.0158 kg/ha): 9.0 | IPOHE herbicidal rating ([7]; rate 0.0315 kg/ha): 9.0 | IPOHE herbicidal rating ([7]; rate 0.0630 kg/ha): 9.0
